This is an account of results in ChEMBL document CHEMBL4507276 (2021).

Experiment [1] has as its target Serine/threonine-protein kinase ULK2 (Homo sapiens) (UniProt Q8IYT8). Conditions: Compound concentration 1000.0 nM.
Experiment [2] concerns the target Cyclin-dependent kinase 7 (Homo sapiens) (UniProt P50613). Conditions: Compound concentration 1000.0 nM.
The target of experiment [3] is Myosin-IIIb (Homo sapiens) (UniProt Q8WXR4). Conditions: Compound concentration 1000.0 nM.
The target of experiment [4] is Serine/threonine-protein kinase Nek5 (Homo sapiens) (UniProt Q6P3R8). Conditions: Compound concentration 1000.0 nM.
Experiment [5] addresses Cyclin-dependent kinase 9 (Homo sapiens) (UniProt P50750). Conditions: Compound concentration 1000.0 nM.
Experiment [6] relates to Epidermal growth factor receptor (Homo sapiens), P00533 [G719S]. Conditions: Compound concentration 1000.0 nM.
Experiment [7] concerns the target T1, Serine/threonine-protein kinase TAO2 (Homo sapiens) (UniProt Q9UL54).
T1 sequence (whole entry): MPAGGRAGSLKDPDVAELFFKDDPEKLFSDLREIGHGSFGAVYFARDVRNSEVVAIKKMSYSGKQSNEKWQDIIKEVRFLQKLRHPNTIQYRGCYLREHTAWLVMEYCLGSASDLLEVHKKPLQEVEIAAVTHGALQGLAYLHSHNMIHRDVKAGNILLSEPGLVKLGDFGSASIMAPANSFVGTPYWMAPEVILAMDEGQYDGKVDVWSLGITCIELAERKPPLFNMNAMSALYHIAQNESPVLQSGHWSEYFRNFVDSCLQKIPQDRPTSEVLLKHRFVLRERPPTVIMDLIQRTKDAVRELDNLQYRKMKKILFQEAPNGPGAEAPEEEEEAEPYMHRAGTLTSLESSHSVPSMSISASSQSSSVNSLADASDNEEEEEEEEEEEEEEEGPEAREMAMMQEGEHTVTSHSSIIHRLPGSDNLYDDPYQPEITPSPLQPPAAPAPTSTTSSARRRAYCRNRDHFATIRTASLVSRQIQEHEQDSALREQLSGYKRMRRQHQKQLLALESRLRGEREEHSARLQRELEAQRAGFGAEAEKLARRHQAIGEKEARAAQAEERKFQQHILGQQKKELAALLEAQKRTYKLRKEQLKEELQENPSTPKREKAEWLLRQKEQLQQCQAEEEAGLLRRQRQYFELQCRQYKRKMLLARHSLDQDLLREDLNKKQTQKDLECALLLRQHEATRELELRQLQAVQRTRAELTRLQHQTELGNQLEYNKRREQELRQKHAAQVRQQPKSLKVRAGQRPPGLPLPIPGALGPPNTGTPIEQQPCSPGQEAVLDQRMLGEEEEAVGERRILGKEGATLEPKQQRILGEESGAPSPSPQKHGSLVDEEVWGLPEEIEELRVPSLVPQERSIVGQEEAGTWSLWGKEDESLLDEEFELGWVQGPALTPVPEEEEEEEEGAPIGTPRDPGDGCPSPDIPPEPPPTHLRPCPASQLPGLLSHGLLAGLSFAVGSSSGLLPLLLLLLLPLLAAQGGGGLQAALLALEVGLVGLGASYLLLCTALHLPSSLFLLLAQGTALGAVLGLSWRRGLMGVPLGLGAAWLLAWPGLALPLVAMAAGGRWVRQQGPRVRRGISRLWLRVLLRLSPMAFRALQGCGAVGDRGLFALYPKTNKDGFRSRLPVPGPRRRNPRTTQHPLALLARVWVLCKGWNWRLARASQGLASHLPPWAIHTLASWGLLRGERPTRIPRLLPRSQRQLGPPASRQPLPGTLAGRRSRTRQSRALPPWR
Conditions: Compound concentration 1000.0 nM.

The test system of experiment [8] is Fibroblast growth factor receptor 3 (Homo sapiens), P22607 [G697C]. Conditions: Compound concentration 1000.0 nM.
The target of experiment [9] is Serine/threonine-protein kinase 17B (Homo sapiens) (UniProt O94768). Conditions: Compound concentration 1000.0 nM.
Sequence of Serine/threonine-protein kinase 17B (Homo sapiens) (O94768 whole entry): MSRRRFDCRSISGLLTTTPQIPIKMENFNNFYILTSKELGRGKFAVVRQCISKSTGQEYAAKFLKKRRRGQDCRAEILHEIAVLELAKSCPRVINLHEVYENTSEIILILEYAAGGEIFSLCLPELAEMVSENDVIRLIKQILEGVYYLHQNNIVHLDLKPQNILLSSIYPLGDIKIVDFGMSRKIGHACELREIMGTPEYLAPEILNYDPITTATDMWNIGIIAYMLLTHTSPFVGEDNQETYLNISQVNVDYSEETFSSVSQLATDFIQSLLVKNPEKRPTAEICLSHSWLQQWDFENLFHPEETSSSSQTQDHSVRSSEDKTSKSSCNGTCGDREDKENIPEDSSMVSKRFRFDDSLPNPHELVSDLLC
Experiment [10] concerns Leucine-rich repeat serine/threonine-protein kinase 2 (Homo sapiens), Q5S007 [G2019S]. Conditions: Compound concentration 1000.0 nM.
The target in experiment [11] is Calcium/calmodulin-dependent protein kinase type II subunit delta (Homo sapiens) (UniProt Q13557). Conditions: Compound concentration 1000.0 nM.
Sequence of Calcium/calmodulin-dependent protein kinase type II subunit delta (Homo sapiens) (Q13557 whole entry): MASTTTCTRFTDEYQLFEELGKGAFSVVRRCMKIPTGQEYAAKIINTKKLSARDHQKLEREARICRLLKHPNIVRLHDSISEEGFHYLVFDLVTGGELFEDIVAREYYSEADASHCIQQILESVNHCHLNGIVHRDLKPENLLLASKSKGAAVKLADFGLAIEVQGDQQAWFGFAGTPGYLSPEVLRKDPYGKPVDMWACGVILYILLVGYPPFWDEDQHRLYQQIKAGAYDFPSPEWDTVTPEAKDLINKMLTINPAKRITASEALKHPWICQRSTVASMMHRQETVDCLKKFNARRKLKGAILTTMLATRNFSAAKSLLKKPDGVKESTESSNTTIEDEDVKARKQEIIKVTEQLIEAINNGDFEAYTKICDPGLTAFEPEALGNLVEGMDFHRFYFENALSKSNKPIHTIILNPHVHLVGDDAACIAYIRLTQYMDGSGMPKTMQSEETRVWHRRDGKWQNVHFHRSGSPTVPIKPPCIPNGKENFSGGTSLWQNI
The target of experiment [12] is Glycogen synthase kinase-3 alpha (Homo sapiens) (UniProt P49840). Conditions: Compound concentration 1000.0 nM.
Experiment [13] deals with Histamine H4 receptor (Homo sapiens) (UniProt Q9H3N8). Conditions: Compound concentration 10.0 uM.
Experiment [14] concerns the target T2, NUAK family SNF1-like kinase 1 (Homo sapiens) (UniProt O60285).
T2 sequence (whole entry): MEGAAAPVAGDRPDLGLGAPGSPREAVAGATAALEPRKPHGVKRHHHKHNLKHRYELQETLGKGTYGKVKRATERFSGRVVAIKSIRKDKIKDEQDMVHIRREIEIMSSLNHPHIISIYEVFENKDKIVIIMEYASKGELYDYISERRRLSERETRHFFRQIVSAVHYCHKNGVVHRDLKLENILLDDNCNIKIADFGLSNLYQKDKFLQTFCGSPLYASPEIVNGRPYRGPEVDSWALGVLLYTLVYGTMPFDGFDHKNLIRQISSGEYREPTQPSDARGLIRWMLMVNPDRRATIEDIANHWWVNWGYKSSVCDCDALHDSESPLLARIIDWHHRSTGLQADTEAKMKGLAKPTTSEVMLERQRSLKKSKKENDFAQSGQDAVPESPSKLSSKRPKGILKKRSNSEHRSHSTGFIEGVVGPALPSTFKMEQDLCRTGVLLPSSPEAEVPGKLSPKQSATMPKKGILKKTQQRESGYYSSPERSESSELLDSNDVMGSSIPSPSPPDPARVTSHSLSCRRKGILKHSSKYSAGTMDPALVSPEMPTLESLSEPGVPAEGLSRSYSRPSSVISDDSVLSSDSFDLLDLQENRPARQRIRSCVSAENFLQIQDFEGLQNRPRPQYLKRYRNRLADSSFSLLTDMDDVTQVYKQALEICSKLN
Conditions: Compound concentration 1000.0 nM.

The target in experiment [15] is Serine/threonine-protein kinase pim-1 (Homo sapiens) (UniProt P11309). Conditions: Compound concentration 1000.0 nM.
In experiment [16] the target is Serine/threonine-protein kinase PLK3 (Homo sapiens) (UniProt Q9H4B4). Conditions: Compound concentration 1000.0 nM.
Experiment [17] deals with Casein kinase I isoform epsilon (Homo sapiens) (UniProt P49674). Conditions: Compound concentration 1000.0 nM.
Sequence of Casein kinase I isoform epsilon (Homo sapiens) (P49674 whole entry, looked up, canonical isoform): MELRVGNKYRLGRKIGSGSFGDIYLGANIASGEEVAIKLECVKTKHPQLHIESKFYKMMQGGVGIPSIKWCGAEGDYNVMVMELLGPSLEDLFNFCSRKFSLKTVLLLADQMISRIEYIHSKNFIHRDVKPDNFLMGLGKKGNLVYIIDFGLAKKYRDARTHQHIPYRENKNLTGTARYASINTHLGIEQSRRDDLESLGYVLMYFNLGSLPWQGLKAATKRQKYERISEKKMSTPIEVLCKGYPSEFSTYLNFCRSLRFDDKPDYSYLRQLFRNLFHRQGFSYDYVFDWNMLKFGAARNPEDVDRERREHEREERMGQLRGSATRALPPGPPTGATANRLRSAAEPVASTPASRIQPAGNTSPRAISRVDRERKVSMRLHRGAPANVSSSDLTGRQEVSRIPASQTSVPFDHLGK
The target in experiment [18] is Ribosomal protein S6 kinase alpha-2 (Homo sapiens) (UniProt Q15349). Conditions: Compound concentration 1000.0 nM.
Sequence of Ribosomal protein S6 kinase alpha-2 (Homo sapiens) (Q15349 whole entry): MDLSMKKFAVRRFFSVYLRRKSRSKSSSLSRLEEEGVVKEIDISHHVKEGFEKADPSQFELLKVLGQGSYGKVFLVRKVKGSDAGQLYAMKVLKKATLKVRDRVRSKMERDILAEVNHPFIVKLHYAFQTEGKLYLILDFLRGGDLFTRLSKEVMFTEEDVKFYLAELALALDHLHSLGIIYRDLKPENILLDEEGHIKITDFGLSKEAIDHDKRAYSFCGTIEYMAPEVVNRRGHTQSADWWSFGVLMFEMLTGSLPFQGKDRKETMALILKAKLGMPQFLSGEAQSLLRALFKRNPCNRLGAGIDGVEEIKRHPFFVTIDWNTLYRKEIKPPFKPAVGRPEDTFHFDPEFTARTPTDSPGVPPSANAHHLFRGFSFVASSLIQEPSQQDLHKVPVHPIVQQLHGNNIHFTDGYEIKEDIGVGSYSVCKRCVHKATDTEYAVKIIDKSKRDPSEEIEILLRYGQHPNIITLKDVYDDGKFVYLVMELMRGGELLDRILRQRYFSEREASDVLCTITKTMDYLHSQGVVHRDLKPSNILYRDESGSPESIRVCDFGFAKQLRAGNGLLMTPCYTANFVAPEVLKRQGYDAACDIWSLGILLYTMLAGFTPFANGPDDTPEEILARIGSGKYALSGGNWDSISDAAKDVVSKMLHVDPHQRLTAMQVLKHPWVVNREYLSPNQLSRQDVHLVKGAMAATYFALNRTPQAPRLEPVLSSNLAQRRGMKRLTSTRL
The target in experiment [19] is Receptor tyrosine-protein kinase erbB-3 (Homo sapiens) (UniProt P21860). Conditions: Compound concentration 1000.0 nM.
The target of experiment [20] is Insulin-like growth factor 1 receptor (Homo sapiens) (UniProt P08069). Conditions: Compound concentration 1000.0 nM.
Sequence of Insulin-like growth factor 1 receptor (Homo sapiens) (P08069 31-736 limits assumed): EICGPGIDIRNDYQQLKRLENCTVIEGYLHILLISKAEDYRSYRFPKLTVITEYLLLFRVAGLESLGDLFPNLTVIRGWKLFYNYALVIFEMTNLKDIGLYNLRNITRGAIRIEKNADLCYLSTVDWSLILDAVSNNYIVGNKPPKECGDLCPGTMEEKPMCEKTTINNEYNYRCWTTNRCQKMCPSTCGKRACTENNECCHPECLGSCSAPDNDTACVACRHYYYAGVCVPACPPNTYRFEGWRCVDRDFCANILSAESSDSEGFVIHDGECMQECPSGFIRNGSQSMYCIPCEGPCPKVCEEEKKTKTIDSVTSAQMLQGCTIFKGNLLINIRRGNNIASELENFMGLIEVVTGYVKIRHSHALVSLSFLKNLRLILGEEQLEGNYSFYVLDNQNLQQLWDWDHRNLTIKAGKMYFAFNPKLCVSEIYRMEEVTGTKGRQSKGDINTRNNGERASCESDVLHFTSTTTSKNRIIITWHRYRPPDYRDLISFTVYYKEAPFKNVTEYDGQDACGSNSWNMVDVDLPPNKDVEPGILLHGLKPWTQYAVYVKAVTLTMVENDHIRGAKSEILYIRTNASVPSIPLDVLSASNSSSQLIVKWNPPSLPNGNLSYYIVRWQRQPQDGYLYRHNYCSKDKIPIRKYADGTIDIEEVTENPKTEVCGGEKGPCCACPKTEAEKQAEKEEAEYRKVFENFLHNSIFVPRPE
Sequence of Insulin-like growth factor 1 receptor (Homo sapiens) (P08069 741-1367 limits assumed): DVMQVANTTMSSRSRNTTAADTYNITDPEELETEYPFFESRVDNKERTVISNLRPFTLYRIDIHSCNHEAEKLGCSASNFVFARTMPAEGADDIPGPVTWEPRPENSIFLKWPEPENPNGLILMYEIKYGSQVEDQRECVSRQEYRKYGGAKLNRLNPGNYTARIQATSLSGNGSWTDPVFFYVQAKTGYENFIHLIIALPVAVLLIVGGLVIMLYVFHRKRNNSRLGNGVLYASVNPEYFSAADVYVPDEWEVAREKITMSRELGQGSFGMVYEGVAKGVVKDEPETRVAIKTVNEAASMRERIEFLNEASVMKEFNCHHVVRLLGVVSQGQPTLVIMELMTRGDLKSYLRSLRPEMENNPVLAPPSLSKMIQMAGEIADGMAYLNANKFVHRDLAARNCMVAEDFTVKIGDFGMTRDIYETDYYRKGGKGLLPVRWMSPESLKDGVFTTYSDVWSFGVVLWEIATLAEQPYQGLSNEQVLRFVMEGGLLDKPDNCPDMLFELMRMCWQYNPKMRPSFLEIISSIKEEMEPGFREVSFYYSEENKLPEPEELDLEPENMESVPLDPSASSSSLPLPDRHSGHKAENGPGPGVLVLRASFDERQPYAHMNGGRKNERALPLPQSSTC

Sequence of Serine/threonine-protein kinase ULK2 (Homo sapiens) (Q8IYT8 whole entry): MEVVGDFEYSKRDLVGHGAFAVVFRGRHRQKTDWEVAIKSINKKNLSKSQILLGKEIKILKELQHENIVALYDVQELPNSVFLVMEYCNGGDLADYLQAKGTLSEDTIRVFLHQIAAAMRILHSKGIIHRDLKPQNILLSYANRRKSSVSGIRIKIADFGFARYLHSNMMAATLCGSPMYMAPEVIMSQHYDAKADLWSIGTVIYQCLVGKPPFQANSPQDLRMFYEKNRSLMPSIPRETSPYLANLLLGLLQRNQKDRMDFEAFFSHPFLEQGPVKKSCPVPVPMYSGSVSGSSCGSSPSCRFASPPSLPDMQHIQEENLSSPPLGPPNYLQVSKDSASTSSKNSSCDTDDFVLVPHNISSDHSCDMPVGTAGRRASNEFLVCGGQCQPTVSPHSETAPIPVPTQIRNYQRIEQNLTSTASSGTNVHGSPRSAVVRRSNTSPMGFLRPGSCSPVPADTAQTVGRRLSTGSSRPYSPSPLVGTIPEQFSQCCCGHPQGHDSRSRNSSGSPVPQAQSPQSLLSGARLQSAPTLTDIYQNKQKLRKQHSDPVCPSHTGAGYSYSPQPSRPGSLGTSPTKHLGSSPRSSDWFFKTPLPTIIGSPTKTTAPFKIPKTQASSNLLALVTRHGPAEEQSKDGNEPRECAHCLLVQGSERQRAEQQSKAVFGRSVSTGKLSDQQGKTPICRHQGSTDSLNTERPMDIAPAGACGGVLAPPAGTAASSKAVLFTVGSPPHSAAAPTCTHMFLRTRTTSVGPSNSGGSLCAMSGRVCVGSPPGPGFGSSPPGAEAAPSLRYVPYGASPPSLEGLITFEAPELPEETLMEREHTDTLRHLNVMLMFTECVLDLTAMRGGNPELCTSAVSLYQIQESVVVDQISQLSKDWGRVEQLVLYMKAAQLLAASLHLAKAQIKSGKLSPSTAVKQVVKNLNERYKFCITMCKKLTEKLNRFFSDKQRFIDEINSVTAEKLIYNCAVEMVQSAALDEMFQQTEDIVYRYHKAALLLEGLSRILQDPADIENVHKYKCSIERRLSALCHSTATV
Sequence of Cyclin-dependent kinase 9 (Homo sapiens) (P50750 whole entry): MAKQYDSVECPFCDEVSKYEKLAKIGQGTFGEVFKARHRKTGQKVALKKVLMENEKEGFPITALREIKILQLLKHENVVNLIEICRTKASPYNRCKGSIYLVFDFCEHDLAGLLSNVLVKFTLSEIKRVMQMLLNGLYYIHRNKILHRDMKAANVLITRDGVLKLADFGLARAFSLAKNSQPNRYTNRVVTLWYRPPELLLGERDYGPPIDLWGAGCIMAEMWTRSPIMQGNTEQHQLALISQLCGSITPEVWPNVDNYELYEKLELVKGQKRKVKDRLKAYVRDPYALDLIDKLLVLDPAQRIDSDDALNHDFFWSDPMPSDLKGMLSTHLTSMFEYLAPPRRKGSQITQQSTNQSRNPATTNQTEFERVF

For the molecule `CN(C)C(=O)Cn1cc(-c2nc(C3(c4ccc(-c5cnc(N)nc5)cc4)CC3)no2)cn1` [BI 0153], the residual activity (in general, the activity still measured, relative to the control) was 78% in experiment [1]; 72% in experiment [2]; 100% in experiment [3]; 89% in experiment [4]; 100% in experiment [5]; 100% in experiment [6]. Moreover, the residual activity in experiment [7] was 100%; in [8] it was 100%; in experiment [9] it was 100%; in experiment [10] it was 100%; in experiment [11], 99%; in experiment [12], 100%. Besides, the residual activity in experiment [14] is 82%; in experiment [15] it was 100%; in experiment [16], 89%; in experiment [17], 100%; in [18] it was 100%; in experiment [19], 87%. Also, the residual activity in experiment [20] was 85%. Also, the inhibition (usually the share of the control response that was lost under treatment) in [13] was 36.6%.
For the molecule `CN(C)C(=O)Cn1cc(-c2nc([C@@](C)(c3ccc(-c4cnc(N)nc4)cc3)C3CC3)no2)cn1` [BI 665915], the residual activity in experiment [1] was 100%; in [2], 59%; in [3], 70%; in [4], 89%; in [5] it was 96%; in experiment [6], 98%. Besides, the residual activity in experiment [7] was 81%; in experiment [8], 89%; in experiment [9] it was 88%; in experiment [10] it was 100%; in [11] it was 100%; in experiment [12] it was 100%. In addition, the residual activity in experiment [14] was 100%; in experiment [15], 100%; in experiment [16], 89%; in experiment [17], 97%; in [18], 85%; in [19] it was 95%. The residual activity in [20] was 100%. Also, the inhibition in [13] is 55.2%.
